Measurements published in patent US6737383B1, “Herbicidal oxadiazolidines” (priority 1999, dated 2004).

Legend:
morningglory = assay: Test A morningglory; assay type: in vivo, Ipomoea spp.; settings: 0 to 10 scale where 0 is no effect and 10 is complete control
Method in brief: (§1)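 Visual injury score, 0 (no effect) to 10 (complete control), vs untreated controls at ~11 d in greenhouse. Pre: soil drench on sandy loam. Post: spray to runoff, 1–2 leaf stage.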

velvetleaf = assay: Test A velvetleaf; assay type: in vivo, Abutilon theophrasti; settings: 0 to 10 scale where 0 is no effect and 10 is complete control
Method in brief: as §1

crabgrass = assay: Test A crabgrass; assay type: in vivo, Digitaria spp.; settings: 0 to 10 scale where 0 is no effect and 10 is complete control
Method in brief: as §1

barnyardgrass = assay: Test C postemergence barnyardgrass; assay type: in vivo, Echinochloa crus-galli; settings: 0 to 100 scale, 0 no effect, 100 complete control
Procedure: (§2) Compounds evaluated in this test were formulated in a non-phytotoxic solvent mixture which included a surfactant and applied to plants that were grown for various periods of time before treatment (postemergence application). A mixture of sandy loam soil and greenhouse potting mix in a 60:40 ratio was used for the postemergence test.
(§3) Plantings of these crops and weed species were adjusted to produce plants of appropriate size for the postemergence test. All plant species were grown using normal greenhouse practices. Crop and weed species include arrowleaf sida (Sida rhombifolia), barnyardgrass (Echinochloa crus-galli), cocklebur (Xanthium strumarium), common ragweed (Ambrosia elatior), corn (Zea mays), cotton (Gossypium hirsutum), eastern black nightshade (Solanum ptycanthum), fall panicum (Panicum dichotomiflorum), field bindweed (Convolvulus arvensis), giant foxtail (Setaria faberii), hairy beggarticks (Bidens pilosa), ivyleaf morningglory (Ipomoea hederacea), johnsongrass (Sorghum halepense), ladysthumb smartweed (Polygonum persicaria), lambsquarters (Chenopodium album), large crabgrass (Digitaria sanguinalis), purple nutsedge (Cyperus rotundus), redroot pigweed (Amaranthus retroflexus), soybean (Glycine max), surinam grass (Brachiaria decumbens), velvetleaf (Abutilon theophrasti) and wild poinsettia (Euphorbia heterophylla).
(§4) Treated plants and untreated controls were maintained in a greenhouse for approximately 14, to 21 days, after which all treated plants were compared to untreated controls and visually evaluated. Plant response ratings, summarized in Table C, were based upon a 0 to 100 scale where 0 was no effect and 100 was complete control. A dash response (−) means no test result.

surinam grass = assay: Test C postemergence surinam grass; assay type: in vivo, Brachiaria decumbens; settings: 0 to 100 scale, 0 no effect, 100 complete control
Procedure: as §2, §3, §4

ivyleaf morningglory = assay: Test C postemergence ivyleaf morningglory; assay type: in vivo, Ipomoea hederacea; settings: 0 to 100 scale, 0 no effect, 100 complete control
Procedure: as §2, §3, §4

large crabgrass = assay: Test C postemergence large crabgrass; assay type: in vivo, Digitaria sanguinalis; settings: 0 to 100 scale, 0 no effect, 100 complete control
Method in brief: (§5)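 Postemergence spray; formulation = non-phytotoxic solvent + surfactant; soil 60:40 sandy loam:greenhouse potting mix; greenhouse, ~14–21 d; visual rating vs untreated, 0–100 (100 = complete control).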

wild poinsettia = assay: Test C postemergence wild poinsettia; assay type: in vivo, Euphorbia heterophylla; settings: 0 to 100 scale, 0 no effect, 100 complete control
Method in brief: as §5

cocklebur = assay: Test C postemergence cocklebur; assay type: in vivo, Xanthium strumarium; settings: 0 to 100 scale, 0 no effect, 100 complete control
Method in brief: as §5

cotton = assay: Test C postemergence cotton; assay type: in vivo, Gossypium hirsutum; settings: 0 to 100 scale, 0 no effect, 100 complete control
Method in brief: as §5

giant foxtail = assay: Test C postemergence giant foxtail; assay type: in vivo, Setaria faberii; settings: 0 to 100 scale, 0 no effect, 100 complete control
Method in brief: as §5

## CCN(CC)C(=O)n1oc(=O)n(-c2ccc(OC)cc2)c1=O [Compound 1]
morningglory; Postemergence, Rate 1000 g/ha
  Plant response rating, Morningglory: 0
morningglory; Pre-emergence, Rate 2000 g/ha
  Plant response rating, Morningglory: 0
velvetleaf; Postemergence, Rate 1000 g/ha
  Plant response rating, Velvetleaf: 0
velvetleaf; Pre-emergence, Rate 2000 g/ha
  Plant response rating, Velvetleaf: 0
crabgrass; Postemergence, Rate 1000 g/ha
  Plant response rating, Crabgrass: 5
crabgrass; Pre-emergence, Rate 2000 g/ha
  Plant response rating, Crabgrass: 9

## Cc1ccccc1-n1c(=O)on(C(=O)N(C2=CCOCC2)C(C)C)c1=O [Compound 10]
morningglory; Postemergence, Rate 1000 g/ha
  Plant response rating, Morningglory: 0
morningglory; Pre-emergence, Rate 2000 g/ha
  Plant response rating, Morningglory: 1
velvetleaf; Postemergence, Rate 1000 g/ha
  Plant response rating, Velvetleaf: 4
velvetleaf; Pre-emergence, Rate 2000 g/ha
  Plant response rating, Velvetleaf: 2
crabgrass; Postemergence, Rate 1000 g/ha
  Plant response rating, Crabgrass: 8
crabgrass; Pre-emergence, Rate 2000 g/ha
  Plant response rating, Crabgrass: 9

## CC(C)Oc1cc(-n2c(=O)on(C(=O)N(c3ccc(F)cc3)C(C)C)c2=O)c(Cl)cc1Cl [Compound 43]
morningglory; Postemergence, Rate 1000 g/ha
  Plant response rating, Morningglory: 0
morningglory; Pre-emergence, Rate 2000 g/ha
  Plant response rating, Morningglory: 0
velvetleaf; Postemergence, Rate 1000 g/ha
  Plant response rating, Velvetleaf: 0
velvetleaf; Pre-emergence, Rate 2000 g/ha
  Plant response rating, Velvetleaf: 0
crabgrass; Postemergence, Rate 1000 g/ha
  Plant response rating, Crabgrass: 0
crabgrass; Pre-emergence, Rate 2000 g/ha
  Plant response rating, Crabgrass: 1

## CC(C)N(C(=O)n1oc(=O)n(Cc2cccs2)c1=O)c1ccc(F)cc1 [Compound 80]
barnyardgrass; Rate 140 g/ha
  Plant response rating, Barnyardgrass: 0
barnyardgrass; Rate 280 g/ha
  Plant response rating, Barnyardgrass: 10
barnyardgrass; Rate 560 g/ha
  Plant response rating, Barnyardgrass: 20
barnyardgrass; Rate 1120 g/ha
  Plant response rating, Barnyardgrass: 20
Surinam grass; Rate 140 g/ha
  Plant response rating, Surinam grass: 0
Surinam grass; Rate 280 g/ha
  Plant response rating, Surinam grass: 0
Surinam grass; Rate 560 g/ha
  Plant response rating, Surinam grass: 0
Surinam grass; Rate 1120 g/ha
  Plant response rating, Surinam grass: 10
Ivyleaf morningglory; Rate 140 g/ha
  Plant response rating I. morningglory: 0
Ivyleaf morningglory; Rate 280 g/ha
  Plant response rating I. morningglory: 10
Ivyleaf morningglory; Rate 560 g/ha
  Plant response rating I. morningglory: 30
Ivyleaf morningglory; Rate 1120 g/ha
  Plant response rating I. morningglory: 50
Large crabgrass; Rate 140 g/ha
  Plant response rating, Large crabgrass: 0
Large crabgrass; Rate 280 g/ha
  Plant response rating, Large crabgrass: 0
Large crabgrass; Rate 560 g/ha
  Plant response rating, Large crabgrass: 10
Large crabgrass; Rate 1120 g/ha
  Plant response rating, Large crabgrass: 10
Wild poinsettia; Rate 140 g/ha
  Plant response rating Wild poinsettia: 0
Wild poinsettia; Rate 280 g/ha
  Plant response rating Wild poinsettia: 0
Wild poinsettia; Rate 560 g/ha
  Plant response rating Wild poinsettia: 5
Wild poinsettia; Rate 1120 g/ha
  Plant response rating Wild poinsettia: 5
cocklebur; Rate 140 g/ha
  Plant response rating, Cocklebur: 5
cocklebur; Rate 280 g/ha
  Plant response rating, Cocklebur: 10
cocklebur; Rate 560 g/ha
  Plant response rating, Cocklebur: 50
cocklebur; Rate 1120 g/ha
  Plant response rating, Cocklebur: 50
cotton; Rate 140 g/ha
  Plant response rating Cotton: 20
cotton; Rate 280 g/ha
  Plant response rating Cotton: 35
cotton; Rate 560 g/ha
  Plant response rating Cotton: 40
cotton; Rate 1120 g/ha
  Plant response rating Cotton: 40
Giant foxtail; Rate 140 g/ha
  Plant response rating, Giant foxtail: 0
Giant foxtail; Rate 280 g/ha
  Plant response rating, Giant foxtail: 0
Giant foxtail; Rate 560 g/ha
  Plant response rating, Giant foxtail: 0
Giant foxtail; Rate 1120 g/ha
  Plant response rating, Giant foxtail: 20
